# From publication PMC11191095, “QSAR Reveals Decreased Lipophilicity of Polar Residues Determines the Selectivity of Antimicrobial Peptide Activity” (ACS Omega, 2024)
# Where a SMILES comes first, the peptide text is derived from it.
# Key:
# Test in all cases: microbe, parasite or virus in culture
# [1] = system: A. baumannii ATCC 17978; type: cell-based, Acinetobacter baumannii; settings: A. baumannii ATCC 17978 (S)
# Summary of the method: (§1)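 Peptides 128→2 μg/mL, 2-fold series; inoculum ~5 × 10^5 CFU/mL from overnight culture (OD600 0.01, mixed 1:1). MHB non-cation-adjusted for bacteria, RPMI 1640 + 2% glucose for fungi. 37 °C, 20 h, OD600. MIC50/MIC90 at 50%/90% inhibition; n ≥ 3.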
# [2] = system: A. baumannii AYE; type: cell-based, Acinetobacter baumannii; settings: A. baumannii AYE (R)
# Summary of the method: as §1
# [3] = system: C. krusei NCPF 3876; type: cell-based; settings: C. krusei NCPF 3876
# Summary of the method: as §1
# [4] = system: C. albicans NCPF 3281; type: cell-based; settings: C. albicans NCPF 3281
# Summary of the method: as §1
# [5] = system: C. parapsilosis NCPF 3209; type: cell-based; settings: C. parapsilosis NCPF 3209
# Summary of the method: as §1
# [6] = system: C. glabrata NCPF 8018; type: cell-based; settings: C. glabrata NCPF 8018
# Summary of the method: as §1
# [7] = system: C. tropicalis NCPF 8760; type: cell-based; settings: C. tropicalis NCPF 8760
# Summary of the method: as §1
# [8] = system: S. aureus (MRSA) NCTC 13616; type: cell-based, Staphylococcus aureus; settings: S. aureus (MRSA) NCTC 13616 (R)
# Summary of the method: as §1
# [9] = system: S. aureus (MSSA) ATCC 9144; type: cell-based, Staphylococcus aureus; settings: S. aureus (MSSA) ATCC 9144 (S)
# Summary of the method: as §1
# [10] = system: S. aureus (MRSA) USA300; type: cell-based, Staphylococcus aureus; settings: S. aureus (MRSA) USA300 (R)
# Summary of the method: as §1
# [11] = system: S. aureus (MRSA) 1199B; type: cell-based, Staphylococcus aureus; settings: S. aureus (MRSA) 1199B (R)
# Summary of the method: as §1
# [12] = system: K. pneumoniae NCTC 13368; type: cell-based, Klebsiella pneumoniae; settings: K. pneumoniae NCTC 13368 (R)
# Summary of the method: as §1
# [13] = system: K. pneumoniae M6; type: cell-based, Klebsiella pneumoniae; settings: K. pneumoniae M6 (S)
# Summary of the method: as §1
# [14] = system: E. coli LEC001; type: cell-based, Escherichia coli; settings: E. coli LEC001 (R)
# Summary of the method: as §1
# [15] = system: E. coli NCTC 12923; type: cell-based, Escherichia coli; settings: E. coli NCTC 12923 (S)
# Summary of the method: as §1
# [16] = system: P. aeruginosa NCTC 13437; type: cell-based, Pseudomonas aeruginosa; settings: P. aeruginosa NCTC 13437 (R)
# Summary of the method: as §1
# [17] = MHB, 37 °C, 20 h, OD600, min. three biological repeats
# [18] = 50% growth inhibition, RPMI 1640 + 2% glucose, 37 °C, 20 h
# [19] = 90% growth inhibition, RPMI 1640 + 2% glucose, 37 °C, 20 h
# [20] = MHB, ~5×10^5 CFU/mL, 37 °C, 20 h, OD600, min. three biological repeats
compound,measurement,setting,value
"KCLTLRSLKKTLKFCASGRT-NH2 [X1-20a, novel amidated frog AMP derivative, Xenopus laevis]",Modal MIC,[1]; [17],16 µg/mL
same,Modal MIC,[1]; shown in µM,6.9 µM
same,Modal MIC,[2]; [17],16 µg/mL
same,Modal MIC,[2]; shown in µM,6.9 µM
same,Modal MIC50,[3]; [18],64 µg/mL
same,Modal MIC90,[3]; [19],64 µg/mL
same,Modal MIC50,[3]; shown in µM,27.5 µM
same,Modal MIC90,[3]; shown in µM,27.5 µM
same,Modal MIC50,[4]; [18],> 128 µg/mL
same,Modal MIC90,[4]; [19],> 128 µg/mL
same,Modal MIC50,[4]; shown in µM,> 55 µM
same,Modal MIC90,[4]; shown in µM,> 55 µM
same,Modal MIC50,[5]; [18],> 128 µg/mL
same,Modal MIC90,[5]; [19],> 128 µg/mL
same,Modal MIC50,[5]; shown in µM,> 55 µM
same,Modal MIC90,[5]; shown in µM,> 55 µM
same,Modal MIC50,[6]; [18],> 128 µg/mL
same,Modal MIC90,[6]; [19],> 128 µg/mL
same,Modal MIC50,[6]; shown in µM,> 55 µM
same,Modal MIC90,[6]; shown in µM,> 55 µM
same,Modal MIC50,[7]; [18],16 µg/mL
same,Modal MIC90,[7]; [19],32 µg/mL
same,Modal MIC50,[7]; shown in µM,6.9 µM
same,Modal MIC90,[7]; shown in µM,13.8 µM
same,Modal MIC,[8]; [17],> 128 µg/mL
same,Modal MIC,[8]; shown in µM,> 55 µM
same,Modal MIC,[9]; [17],16 µg/mL
same,Modal MIC,[9]; shown in µM,6.9 µM
same,Modal MIC,[10]; [17],> 128 µg/mL
same,Modal MIC,[10]; shown in µM,> 55 µM
same,Modal MIC,[11]; shown in µM,> 55 µM
same,Modal MIC,[12]; [17],64 µg/mL
same,Modal MIC,[12]; shown in µM,27.5 µM
same,Modal MIC,[13]; [17],32 µg/mL
same,Modal MIC,[13]; shown in µM,13.8 µM
same,Modal MIC,[14]; [17],> 128 µg/mL
same,Modal MIC,[14]; shown in µM,> 55 µM
same,Modal MIC,[15]; [20],8 µg/mL
same,Modal MIC,[15]; shown in µM,3.4 µM
same,Modal MIC,[16]; [17],> 128 µg/mL
same,Modal MIC,[16]; shown in µM,> 55 µM
CC[C@H](C)[C@H](NC(=O)CNC(=O)[C@@H](N)CCCNC(=N)N)C(=O)N[C@@H](CCCNC(=N)N)C(=O)NCC(=O)N[C@@H](Cc1ccc(O)cc1)C(=O)N[C@@H](CCCCN)C(=O)NCC(=O)NCC(=O)N[C@@H](Cc1ccc(O)cc1)C(=O)N[C@@H](CS)C(=O)N[C@H](C(=O)NCC(=O)N[C@@H](CCCNC(=N)N)C(=O)N[C@@H](Cc1ccccc1)C(=O)N[C@@H](CCCCN)C(=O)N[C@@H](CCC(N)=O)C(=O)N[C@H](C(=O)N[C@@H](CS)C(=O)N[C@@H](CCCCN)C(=O)N[C@@H](CS)C(=O)N[C@@H](Cc1ccc(O)cc1)C(=O)O)[C@@H](C)O)[C@@H](C)O [OmDefB] (H-RGIRGYKGGYCTGRFKQTCKCY-OH; N-terminus and C-terminus assumed),Modal MIC,[1]; [17],> 128 µg/mL
same,Modal MIC,[1]; shown in µM,> 49.9 µM
same,Modal MIC,[2]; [17],> 128 µg/mL
same,Modal MIC,[2]; shown in µM,> 49.9 µM
same,Modal MIC50,[3]; [18],> 128 µg/mL
same,Modal MIC90,[3]; [19],> 128 µg/mL
same,Modal MIC50,[3]; shown in µM,> 49.9 µM
same,Modal MIC90,[3]; shown in µM,> 49.9 µM
same,Modal MIC50,[4]; [18],> 128 µg/mL
same,Modal MIC90,[4]; [19],> 128 µg/mL
same,Modal MIC50,[4]; shown in µM,> 49.9 µM
same,Modal MIC90,[4]; shown in µM,> 49.9 µM
same,Modal MIC50,[5]; [18],> 128 µg/mL
same,Modal MIC90,[5]; [19],> 128 µg/mL
same,Modal MIC50,[5]; shown in µM,> 49.9 µM
same,Modal MIC90,[5]; shown in µM,> 49.9 µM
same,Modal MIC50,[6]; [18],> 128 µg/mL
same,Modal MIC90,[6]; [19],> 128 µg/mL
same,Modal MIC50,[6]; shown in µM,> 49.9 µM
same,Modal MIC90,[6]; shown in µM,> 49.9 µM
same,Modal MIC50,[7]; [18],> 128 µg/mL
same,Modal MIC90,[7]; [19],> 128 µg/mL
same,Modal MIC50,[7]; shown in µM,> 49.9 µM
same,Modal MIC90,[7]; shown in µM,> 49.9 µM
same,Modal MIC,[8]; [17],> 128 µg/mL
same,Modal MIC,[8]; shown in µM,> 49.9 µM
same,Modal MIC,[9]; [17],> 128 µg/mL
same,Modal MIC,[9]; shown in µM,> 49.9 µM
same,Modal MIC,[10]; [17],> 128 µg/mL
same,Modal MIC,[10]; shown in µM,> 49.9 µM
same,Modal MIC,[11]; [17],> 128 µg/mL
same,Modal MIC,[11]; shown in µM,> 49.9 µM
same,Modal MIC,[12]; [17],> 128 µg/mL
same,Modal MIC,[12]; shown in µM,> 49.9 µM
same,Modal MIC,[13]; [17],> 128 µg/mL
same,Modal MIC,[13]; shown in µM,> 49.9 µM
same,Modal MIC,[14]; [17],> 128 µg/mL
same,Modal MIC,[14]; shown in µM,> 49.9 µM
same,Modal MIC,[15]; [20],> 128 µg/mL
same,Modal MIC,[15]; shown in µM,> 49.9 µM
same,Modal MIC,[16]; [17],> 128 µg/mL
same,Modal MIC,[16]; shown in µM,> 49.9 µM
CC[C@H](C)[C@H](NC(=O)[C@@H](N)Cc1c[nH]c2ccccc12)C(=O)N[C@@H](CCCCN)C(=O)N[C@@H](CO)C(=O)N[C@H](C(=O)N[C@@H](C)C(=O)N[C@@H](CCCCN)C(=O)N[C@@H](CCCCN)C(N)=O)[C@@H](C)O [Opis8a] (H-WIKSTAKK-NH2),Modal MIC,[1]; [17],> 128 µg/mL
same,Modal MIC,[1]; shown in µM,> 133.2 µM
same,Modal MIC,[2]; [17],> 128 µg/mL
same,Modal MIC,[2]; shown in µM,> 133.2 µM
same,Modal MIC50,[3]; [18],> 128 µg/mL
same,Modal MIC90,[3]; [19],> 128 µg/mL
same,Modal MIC50,[3]; shown in µM,> 133.2 µM
same,Modal MIC90,[3]; shown in µM,> 133.2 µM
same,Modal MIC50,[4]; [18],> 128 µg/mL
same,Modal MIC90,[4]; [19],> 128 µg/mL
same,Modal MIC50,[4]; shown in µM,> 133.2 µM
same,Modal MIC90,[4]; shown in µM,> 133.2 µM
same,Modal MIC50,[5]; [18],> 128 µg/mL
same,Modal MIC90,[5]; [19],> 128 µg/mL
same,Modal MIC50,[5]; shown in µM,> 133.2 µM
same,Modal MIC90,[5]; shown in µM,> 133.2 µM
same,Modal MIC50,[6]; [18],> 128 µg/mL
same,Modal MIC90,[6]; [19],> 128 µg/mL
same,Modal MIC50,[6]; shown in µM,> 133.2 µM
same,Modal MIC90,[6]; shown in µM,> 133.2 µM
same,Modal MIC50,[7]; [18],> 128 µg/mL
same,Modal MIC90,[7]; [19],> 128 µg/mL
same,Modal MIC50,[7]; shown in µM,> 133.2 µM
same,Modal MIC90,[7]; shown in µM,> 133.2 µM
same,Modal MIC,[8]; [17],> 128 µg/mL
same,Modal MIC,[8]; shown in µM,> 133.2 µM
same,Modal MIC,[9]; [17],> 128 µg/mL
same,Modal MIC,[9]; shown in µM,> 133.2 µM
same,Modal MIC,[10]; [17],> 128 µg/mL
same,Modal MIC,[10]; shown in µM,> 133.2 µM
same,Modal MIC,[11]; [17],> 128 µg/mL
same,Modal MIC,[11]; shown in µM,> 133.2 µM
same,Modal MIC,[12]; [17],> 128 µg/mL
same,Modal MIC,[12]; shown in µM,> 133.2 µM
same,Modal MIC,[13]; [17],> 128 µg/mL
same,Modal MIC,[13]; shown in µM,> 133.2 µM
same,Modal MIC,[14]; [17],> 128 µg/mL
same,Modal MIC,[14]; shown in µM,> 133.2 µM
same,Modal MIC,[15]; [20],> 128 µg/mL
same,Modal MIC,[15]; shown in µM,> 133.2 µM
same,Modal MIC,[16]; [17],> 128 µg/mL
same,Modal MIC,[16]; shown in µM,> 133.2 µM
